Measured values taken from patent US20100204158A1, “COMBINATION OF SPLENOPENTIN AND THYMOPENTIN AND THE USE THEREOF IN MEDICINE” (priority 2007, published 2010).
Residues, ends and D or L forms follow the SMILES beside them. No end group written: not given here.

Key:
HIV-1IIIB = test: HIV-1 antiviral assay in CEM-SS cells (MTS readout); type: cell-based
[1] = test system: hepatitis B virus (HBV) ayw strain; test: HBV experimental assay system (HepG2-2.2.15, TaqMan PCR of secreted HBV DNA); type: cell-based; conditions: 10 micrograms per ml; HepG2-2.2.15, six days, HBV DNA by TaqMan PCR
Description: HepG2-2.2.15 is a stable cell line containing the hepatitis B virus (HBV) ayw strain genome (ATCC Cat. No. CRL-11997). Antiviral compounds blocking any late step of viral replication such as transcription, translation, pregenome encapsidation, reverse transcription, particle assembly and release can be identified and characterized using this cell line. In this assay, an active compound will reduce the production of secreted HBV from cells, measured by utilizing real time quantitative PCR (TaqMan) assay to directly and accurately measure HBV DNA copies.
HepG2-2.2.15 cells were plated in 96-well microtiter plates. After 16-24 hours the confluent monolayer of HepG2-2.2.15 cells was washed and the medium was replaced with complete medium containing test peptides—10 micrograms per ml—in duplicate. […] Six days following the initial administration of the peptides, the cell culture supernatants was collected, treated with pronase and DNAse and then used in a real-time quantitative TaqMan PCR assay. The PCR-amplified HBV DNA was detected in real-time by monitoring increases in fluorescence signals that result from the exonucleolytic degradation of a quenched fluorescence probe molecule that hybridizes to the amplified HBV DNA. […] Antiviral activity was calculated from the reduction in HBV DNA levels (% virus control). […]

murine spleen cells = test: Th1/Th2 cytokine profiling assay (Ovalbumin-restimulated spleen cells, CBA kit); type: cell-based, Balb/c mice; conditions: 10 micrograms per ml, Ovalbumin restimulation, 72 hours
HCMV strain AD169 = test: HCMV plaque formation assay in MRC-5 cells; conditions: for inhibition of HCMV plaque formation as compared to the virus control experiment: 10 micrograms per ml, 7-10 days
HUVEC = test: Endothelial tube formation assay; type: cell-based, human; conditions: 10 micrograms per ml, 20 hours
Description: Positive control was vehicle only.

[2] = test system: Primary Human endothelial cells (HUVEC); test: Endothelial cell migration assay; type: cell-based; conditions: 10 micrograms per ml, 22 hours

CC(C)(C)NC(=O)[C@@H]1CN(Cc2cccnc2)CCN1C[C@@H](O)C[C@@H](Cc1ccccc1)C(=O)N[C@H]1c2ccccc2C[C@H]1O [indinavir]
antiviral activity of positive control compounds (HIV-1) (HIV-1IIIB): expected levels of antiviral activity

CC(C)[C@H](NC(=O)[C@H](CC(=O)O)NC(=O)[C@H](CCCCN)NC(=O)[C@@H](N)CCCN=C(N)N)C(=O)N[C@@H](Cc1ccc(O)cc1)C(=O)O [Peptide 2, Arg-Lys-Asp-Val-Tyr-OH] (H-RKDVY-OH)
inhibition of HBV replication as compared to the virus control infection [1]: 6.2% | change of the production of TNF-alpha (in words) (murine spleen cells): did not significantly change | decrease of the production of IFN-gamma (murine spleen cells): 38.0% | decrease of the production of IL-5 (murine spleen cells): 28.2% | induction of the production of IL-2 (murine spleen cells): 22.2% | induction of the production of IL-4 (murine spleen cells): 70.6% | inhibition of HCMV plaque formation as compared to the virus control experiment (HCMV strain AD169): 1.4% | inhibition of the tube formation of human endothelial cells (HUVEC): 31% | inhibition of the migration of human endothelial cells [2]: 7%

Cc1cn([C@H]2C[C@H](N=[N+]=[N-])[C@@H](CO)O2)c(=O)[nH]c1=O [AZT]
antiviral activity of positive control compounds (HIV-1) (HIV-1IIIB): expected levels of antiviral activity

Nc1nc(O)c2ncn(COC(CO)CO)c2n1 [Ganciclovir, reference compound]
antiviral activity of positive control compound (HCMV) (HCMV strain AD169; positive control, HCMV AD169): expected levels of antiviral activity

Arg-Lys-Glu-Val-Tyr-OH (RKEVY-OH) [Peptide 1, Splenopentin, commercially available known peptide]
inhibition of HBV replication as compared to the virus control infection [1]: 19.5% | change of the production of IL-5 (in words) (murine spleen cells): did not significantly change | change of the production of TNF-alpha (in words) (murine spleen cells): did not significantly change | induction of the production of IFN-γ (murine spleen cells): 38.9% | induction of the production of IL-2 (murine spleen cells): 68.5% | induction of the production of IL-4 (murine spleen cells): 68.1% | inhibition of HCMV plaque formation as compared to the virus control experiment (HCMV strain AD169): no effect | inhibition of the tube formation of human endothelial cells (HUVEC): 22% | inhibition of the migration of human endothelial cells [2]: did not inhibit
